Results: US7405228B2, “Antibacterial cyano-(substituted)-methylenepiperidinophenyl oxazolidinones targeting multiple ribonucleoprotein sites” (Wockhardt Limited, priority 2002, dated 2008)

| SMILES | melting point [°C] |
| --- | --- |
| CC(C)(C)C(=O)OCC(=O)NC[C@H]1CN(c2ccc(N3CCC(=CC#N)CC3)c(F)c2)C(=O)O1 [Example 14, (S)-N-{3-[4-(4-cyanomethylidene-piperidin-1-yl)-3-fluorophenyl]-2-oxo-oxazolidin-5-ylmethyl}-2-pivolyloxyacetamide] | 91 to 93 |
| COC(=O)c1cn(C[C@H]2CN(c3ccc(N4CCC(C(C#N)CO)CC4)c(F)c3)C(=O)O2)nn1 (stereo partly drawn) [Example 150, (S)-1-{3-[4-(4-(1-cyano-2-hydroxy)-ethylpiperidin-1-yl)-3-fluorophenyl]-2-oxo-oxazolidin-5-ylmethyl}-4-methoxycarbonyl-1,2,3-triazole] | 204 to 206 |
| CCOC(=O)c1cn(C[C@H]2CN(c3ccc(N4CCC(C(C#N)CO)CC4)c(F)c3)C(=O)O2)nn1 (stereo partly drawn) [Example 151, (S)-1-{3-[4-(4-(1-cyano-2-hydroxy)-ethylpiperidin-1-yl)-3-fluorophenyl]-2-oxo-oxazolidin-5-ylmethyl}-4-ethoxycarbonyl-1,2,3-triazole] | 170 to 172 |
| CCC(C#N)=C1CCN(c2ccc(N3C[C@H](CNC(=O)C(Cl)(Cl)Cl)OC3=O)cc2F)CC1 [Example 91, (S)-N-{3-[4-(4-(1-cyanopropylidene)-piperidin-1-yl)-3-fluorophenyl]-2-oxo-oxazolidin-5-ylmethyl}-trichloroacetamide] | 150 to 152 |
| N#CC=C1CCN(c2ccc(N3C[C@H](CNC(=O)[C@@H](N)Cc4c[nH]cn4)OC3=O)cc2F)CC1 [Example 43, (2S, 5S){N-{3-[4-(4-cyanomethylidene-piperidin-1-yl)-3-fluorophenyl]-2-oxo-oxazolidin-5-ylmethyl}-3-(imidazol-4-yl)-propionamid-2-yl}-amine] | 93 to 96 |
| CCOC(=O)c1cn(CC2CN(c3ccc(N4CCC(=CC#N)CC4)c(F)c3)C(=O)O2)nn1 (stereo in doubt) [Example 26, (S)-1-{3-[4-(4-cyanomethylidene-piperidin-1-yl)-3-fluorophenyl]-2-oxo-oxazolidin-5-ylmethyl}-4-carboethoxy-1,2,3-triazole] | 164 to 166 |
| N#CC=C1CCN(c2ccc(N3C[C@H](CNC(=S)NCCO)OC3=O)cc2F)CC1 [Example 48, (S)-N-{3-[4-(4-cyanomethylidene-piperidin-1-yl)-3-fluorophenyl]-2-oxo-oxazolidin-5-ylmethyl}-2-hydroxyethylthiocarbamide] | 168 to 170 |

More lines, now with the values ahead:

| melting point [°C] | SMILES |
| --- | --- |
| 116 to 118 | CS(=O)(=O)OC[C@H]1CN(c2ccc(N3CC/C(=C\C#N)C(F)C3)c(F)c2)C(=O)O1 (stereo partly drawn) [Example 59, (R)-{3-[4-(4-cyanomethylidene-3-fluoropiperidin-1-yl)-3-fluorophenyl]-2-oxo-oxazolidin-5-ylmethyl}-methanesulphonate] |
| 162 to 164 | N#CC=C1CCN(c2ccc(N3C[C@H](CNC(=O)C(F)F)OC3=O)cc2F)CC1 [Example 29, (S)-N-{3-[4-(4-cyanomethylidene-piperidin-1-yl)-3-fluorophenyl]-2-oxo-oxazolidin-5-ylmethyl}-difluoroacetamide] |
| 148 to 150 | CC(=O)NC[C@H]1CN(c2ccc(N3CC/C(=C(/C)C#N)C(F)C3)c(F)c2)C(=O)O1 (stereo partly drawn) [Example 85, (S)-N-{3-[4-(4-(1-cyanoethylidene)-3-fluoropiperidin-1-yl)-3-fluorophenyl]-2-oxo-oxazolidin-5-ylmethyl}-acetamide] |
| 120 to 122 | CS(=O)(=O)OC[C@H]1CN(c2ccc(N3CCC(=CC#N)CC3)cc2)C(=O)O1 [Example 6, (R)-{3-[4-(4-cyanomethylidene-piperidin-1-yl)-phenyl]-2-oxo-oxazolidin-5-ylmethyl}-methanesulphonate] |
| 98 to 100 | CC1CN(c2ccc(N3C[C@H](CNC=O)OC3=O)cc2F)CC/C1=C\C#N (stereo partly drawn) [Example 62, (S)-N-{3-[4-(4-cyanomethylidene-3-methylpiperidin-1-yl)-3-fluorophenyl]-2-oxo-oxazolidin-5-ylmethyl}-formamide] |
